Source: patent US20240018120A1, “MAGL INHIBITORS” (H. LUNDBECK A/S, priority 2020, published 2024)

Tests used:
[1] = tested on: kainic acid seizure model; assay: Kainic acid seizure model in the rat; assay type: in vivo
Procedure: Kainic acid is an analog of the excitatory neurotransmitter, glutamate and acts as an agonist of kainic acid receptors. After systemic injection, kainic acid induces prolonged excitatory responses with many of the features of human temporal lobe epilepsy.
Rats, placed in individual Plexiglas cages (33×21×18 cm), are injected with kainic acid (20 mg/kg i.p.). The occurrences of the following symptoms are noted over a 120-minute period 30 minutes after kainic acid injection: forelimb clonus, rearings and rearings with falling, clonic convulsions, tonic convulsions and death. The presence of each symptom and the latencies to the first appearance of the symptoms are measured. The number of forelimb clonus is counted.
12 rats are studied per group. The test is performed partially blind.
The test substances will be evaluated at multiple doses, administered p.o. 240 minutes before the test, and compared with the corresponding vehicle control group (Group 2, administered with 10% HP-b-CD in distilled water, p.o. 240 minutes before the test).
Example 6 was evaluated at 0.3, 1, 3 and 10 mg/kg, and Example 8 was evaluated at 1, 3 and 10 mg/kg, administered p.o. 4 hours before the test, and compared with a vehicle control group (administered with 10% HP-b-CD, p.o. 4 hours before the test).
Diazepam (16 mg/kg) used as reference substance, was administered p.o. 60 minutes before the test (0.5% HP-b-CD) and was compared with vehicle controls.
Quantitative data (latencies) with the test substance was analyzed by comparing treated groups with vehicle control using Kruskal-Wallis test followed by Mann-Whitney U test. Quantitative data with the reference substance will be analysed using Mann-Whitney U test.
Quantal data (frequencies) were analyzed by comparing treated groups with vehicle control using Fisher's Exact Probability tests.

[2] = tested on: cryopreserved human hepatocytes; assay: In vitro human hepatocyte stability; assay type: in vitro ADME; details: human hepatocytes 0.5×10^6 cells/mL, 1 μM
Summary of the method: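 Test articles at 1 μM incubated in duplicate with pooled-donor cryopreserved human hepatocytes (0.5×10^6 cells/mL), sampled from 0 to 240 min and quantified by LC-MS/MS after acetonitrile quench. In vitro t½ taken from the depletion slope (−0.693/k) and scaled to unbound CLint in mL/min/kg, mean of duplicates.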

MAGL = target: T1, MAGL (Homo sapiens, UniProt Q99685); assay: In vitro competitive substrate hydrolysis enzyme activity assay (pNPA), HEK293 cell lysates; assay type: biochemical; design: expressed in transfected cells; host or cells: HEK293; details: HEK293 lysate
T1 sequence (Q99685 1-303): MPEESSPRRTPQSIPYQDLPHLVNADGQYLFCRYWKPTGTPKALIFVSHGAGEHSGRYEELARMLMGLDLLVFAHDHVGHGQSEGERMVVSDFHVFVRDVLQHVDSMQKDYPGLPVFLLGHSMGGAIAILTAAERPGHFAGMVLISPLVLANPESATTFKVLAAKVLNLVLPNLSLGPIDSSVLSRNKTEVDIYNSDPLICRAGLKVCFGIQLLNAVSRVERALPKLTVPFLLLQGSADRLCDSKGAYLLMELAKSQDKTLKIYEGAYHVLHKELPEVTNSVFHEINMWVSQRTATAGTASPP
Summary of the method: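 Lysates of HEK293 cells expressing human MAGL (~1.2 μg protein) preincubated 30 min at 25° C with inhibitor in 50 mM HEPES pH 7.0, 200 mM KCl, 1 mM EDTA. pNPA substrate then added (2× stock 2.5 mM), and A405 followed for 20 min at 25° C. Rates normalized to DMSO, and IC50 from 4-parameter fit.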

## O=C(Nc1cccnn1)[C@H]1CC12CCN(C(=O)OC(C(F)(F)F)C(F)(F)F)CC2 [Example 6, 1,1,1,3,3,3-Hexafluoropropan-2-yl (S)-1-(pyridazin-3-ylcarbamoyl)-6-azaspiro[2.5]octane-6-carboxylate]
[1]; dose-range 0.3-10 mg/kg p.o., 4 hours before the test, rat
  anticonvulsant effects in the kainic acid seizure test: clear anticonvulsant effects
[1]; middle-high doses, reference Diazepam 16 mg/kg p.o.
  magnitude of the effects in the kainic acid seizure test compared with reference: close to those observed with the reference substance, Diazepam
[2]
  Scaled-up unbound CLint: 5.79 mL/min/kg
MAGL
  IC50: 0.00826 µM
